Earlier results on 1 compound are cited in patent US20110082545A1, “DRUG ELUTING BREAST IMPLANT COVER OR COATING” (LIPOSE CORPORATION, priority 2009, published 2011).

The series relates to capsular contracture. The conditions noted are these: administered orally.

With `COc1cc(C(=O)NS(=O)(=O)c2ccccc2C)ccc1Cc1cn(C)c2ccc(NC(=O)OC3CCCC3)cc12` [zafirlukast], the “ability to moderate the capsular contracture” value is listed as “demonstrated the ability to moderate the capsular contracture”.
